Each structure is given as a SMILES string. Values after ≈ are worked out from the molar mass of the structure shown.

Common to all, as to assay type: functional
In assay [1] the test system is Haemophilus influenzae. The experiment in a line: Antimicrobial activity against beta-lactamase negative, ampicillin-resistant Haemophilus influenzae expressing […] mutant gene by microdilution method. A general note: In broth dilution the organism is exposed to a series of concentrations in liquid medium.
The test system of assay [2] is Haemophilus influenzae. The experiment in a line: Antimicrobial activity against beta-lactamase negative Haemophilus influenzae expressing […] gene by microdilution method.
For assay [3], the system named is Haemophilus influenzae. The experiment in a line: Antimicrobial activity against beta-lactamase positive Haemophilus influenzae expressing […] gene by microdilution method.
Assay [4] concerns Haemophilus influenzae. Description: Antimicrobial activity against beta-lactamase positive, ampicillin-clavulanic acid resistant Haemophilus influenzae expressing […] mutant gene by microdilution method.
For assay [5], the system named is Haemophilus influenzae. The experiment in a line: Antimicrobial activity against beta-lactamase negative, ampicillin-resistant Haemophilus influenzae expressing […] mutant gene assessed as resistant isolates by microdilution method.
The subject of assay [6] is Haemophilus influenzae. Description: Antimicrobial activity against beta-lactamase negative Haemophilus influenzae expressing […] gene assessed as resistant isolates by microdilution method.
The subject of assay [7] is Haemophilus influenzae. Description: Antimicrobial activity against beta-lactamase positive, ampicillin-clavulanic acid resistant Haemophilus influenzae expressing […] mutant gene assessed as resistant isolates by microdilution method.
Assay [8] deals with Haemophilus influenzae. The experiment in a line: Antimicrobial activity against beta-lactamase positive Haemophilus influenzae expressing […] gene assessed as resistant isolates by microdilution method.
For assay [9], the system named is Haemophilus influenzae. The experiment in a line: Antimicrobial activity against beta-lactamase positive, ampicillin-clavulanic acid resistant Haemophilus influenzae expressing […] mutant gene by microdilution method in presence of beta-lactamase inhibitor clavulanic acid.
The subject of assay [10] is Haemophilus influenzae. The experiment in a line: Antimicrobial activity against beta-lactamase negative, ampicillin-resistant Haemophilus influenzae expressing […] mutant gene by microdilution method in presence of beta-lactamase inhibitor clavulanic acid.
In assay [11] the test system is Haemophilus influenzae. Description: Antimicrobial activity against beta-lactamase positive, ampicillin-clavulanic acid resistant Haemophilus influenzae expressing […] mutant gene assessed as resistant isolates by microdilution method in presence of beta-lactamase inhibitor clavulanic acid.
The test system of assay [12] is Haemophilus influenzae. The experiment in a line: Antimicrobial activity against beta-lactamase negative Haemophilus influenzae expressing […] gene by microdilution method in presence of beta-lactamase inhibitor clavulanic acid.
For assay [13], the system named is Haemophilus influenzae. Description: Antimicrobial activity against beta-lactamase positive Haemophilus influenzae expressing […] gene by microdilution method in presence of beta-lactamase inhibitor clavulanic acid.
In assay [14] the test system is Haemophilus influenzae. Description: Antimicrobial activity against beta-lactamase negative, ampicillin-resistant Haemophilus influenzae expressing […] mutant gene assessed as resistant isolates by microdilution method in presence of beta-lactamase inhibitor clavulanic acid.
Assay [15] has as its system Haemophilus influenzae. Description: Antimicrobial activity against beta-lactamase positive Haemophilus influenzae expressing […] gene assessed as resistant isolates by microdilution method in presence of beta-lactamase inhibitor clavulanic acid.

As to `CO/N=C(\C(=O)N[C@@H]1C(=O)N2C(C(=O)OCOC(=O)C(C)(C)C)=C(/C=C\c3scnc3C)CS[C@H]12)c1csc(N)n1` [CEFDITOREN PIVOXIL], the MIC50 worked out at 0.06 µg/mL (≈ 0.0967 µM) against Haemophilus influenzae [1], 0.03 µg/mL (≈ 0.0483 µM) in the assay on Haemophilus influenzae [2], 0.03 µg/mL (≈ 0.0483 µM) against Haemophilus influenzae [3] and 0.03 µg/mL in the assay with Haemophilus influenzae [4]. Besides, the MIC90 against Haemophilus influenzae [1] is 0.06 µg/mL (≈ 0.0967 µM); with Haemophilus influenzae [2] it was 0.06 µg/mL (≈ 0.0967 µM); in the assay on Haemophilus influenzae [3] it was 0.06 µg/mL (≈ 0.0967 µM); in the assay with Haemophilus influenzae [4], 0.06 µg/mL.

Turning to `CC1(C)S[C@@H]2[C@H](NC(=O)[C@H](N)c3ccccc3)C(=O)N2[C@H]1C(=O)O` [AMPICILLIN], the Activity amounted to 98.3% in the assay with Haemophilus influenzae [5], 30% in the assay with Haemophilus influenzae [6], 95.5% in the assay with Haemophilus influenzae [7] and 100% in the assay on Haemophilus influenzae [8]. Further, the values for the MIC50 in the assay with Haemophilus influenzae [1], in the assay with Haemophilus influenzae [2] and against Haemophilus influenzae [3] were 2 µg/mL (≈ 5.72 µM), 1 µg/mL (≈ 2.86 µM) and not below 128 µg/mL, respectively. The MIC90 with Haemophilus influenzae [1] is 4 µg/mL (≈ 11.4 µM); in the assay on Haemophilus influenzae [2] it was 2 µg/mL (≈ 5.72 µM); against Haemophilus influenzae [3] it was not below 128 µg/mL.

Take `C=CC1=C(C(=O)O)N2C(=O)[C@@H](NC(=O)/C(=N\O)c3csc(N)n3)[C@H]2SC1` [CEFDINIR]: the Activity in the assay on Haemophilus influenzae [5] was 57%; in the assay on Haemophilus influenzae [6], 40%; with Haemophilus influenzae [7] it was 52.3%; with Haemophilus influenzae [8], 33.3%. In addition, the MIC50 against Haemophilus influenzae [1] came to 2 µg/mL (≈ 5.06 µM); against Haemophilus influenzae [2], 1 µg/mL (≈ 2.53 µM); against Haemophilus influenzae [3], 0.5 µg/mL (≈ 1.26 µM); in the assay on Haemophilus influenzae [4], 2 µg/mL. For the same molecule, the MIC90 was found to be 8 µg/mL (≈ 20.2 µM) against Haemophilus influenzae [1], 4 µg/mL (≈ 10.1 µM) in the assay on Haemophilus influenzae [2], 4 µg/mL (≈ 10.1 µM) in the assay with Haemophilus influenzae [3] and 4 µg/mL in the assay on Haemophilus influenzae [4].

`CO/N=C(\C(=O)N[C@@H]1C(=O)N2C(C(=O)O)=C(COC(C)=O)CS[C@H]12)c1csc(N)n1` [CEFOTAXIME]: the Activity was determined as 0.8% in the assay with Haemophilus influenzae [5], 0% in the assay on Haemophilus influenzae [6], 0% in the assay with Haemophilus influenzae [7] and 0% in the assay with Haemophilus influenzae [8]. Moreover, the MIC50 is 0.06 µg/mL (≈ 0.132 µM) in the assay on Haemophilus influenzae [1], 0.03 µg/mL (≈ 0.0659 µM) in the assay on Haemophilus influenzae [2], 0.03 µg/mL (≈ 0.0659 µM) in the assay on Haemophilus influenzae [3] and 0.03 µg/mL in the assay with Haemophilus influenzae [4]. Besides, the MIC90 amounted to 0.5 µg/mL (≈ 1.1 µM) against Haemophilus influenzae [1], 0.25 µg/mL (≈ 0.549 µM) with Haemophilus influenzae [2], 0.06 µg/mL (≈ 0.132 µM) with Haemophilus influenzae [3] and 0.25 µg/mL in the assay with Haemophilus influenzae [4].

Regarding `CC1(C)S[C@@H]2[C@H](NC(=O)[C@H](N)c3ccc(O)cc3)C(=O)N2[C@H]1C(=O)O` [AMOXICILLIN], the MIC50 with Haemophilus influenzae [9] was determined as 4 µg/mL; with Haemophilus influenzae [10] it was 2 µg/mL; in the assay on Haemophilus influenzae [12] it was 0.5 µg/mL; in the assay with Haemophilus influenzae [13] it was 2 µg/mL. The MIC90 in the assay on Haemophilus influenzae [9] worked out at 8 µg/mL; with Haemophilus influenzae [10], 4 µg/mL; in the assay on Haemophilus influenzae [12], 4 µg/mL; with Haemophilus influenzae [13], 4 µg/mL. Besides, the results for the Activity with Haemophilus influenzae [11], with Haemophilus influenzae [14] and in the assay with Haemophilus influenzae [15] were 25%, 9.9% and 4.8%, respectively.

With `N[C@@H](C(=O)N[C@@H]1C(=O)N2C(C(=O)O)=C(Cl)CS[C@H]12)c1ccccc1` [CEFACLOR ANHYDROUS], the Activity in the assay with Haemophilus influenzae [5] is given as 70.2%; with Haemophilus influenzae [6], 40%; in the assay on Haemophilus influenzae [7] it was 86.4%; with Haemophilus influenzae [8], 76.2%. For the same molecule, the MIC50 against Haemophilus influenzae [1] came to 32 µg/mL (≈ 87 µM); in the assay on Haemophilus influenzae [2], 8 µg/mL (≈ 21.8 µM); in the assay on Haemophilus influenzae [3] it was 32 µg/mL (≈ 87 µM); in the assay with Haemophilus influenzae [4] it was 32 µg/mL. The MIC90 with Haemophilus influenzae [2] is 32 µg/mL (≈ 87 µM); in the assay with Haemophilus influenzae [3] it was not below 128 µg/mL; with Haemophilus influenzae [4] it was 64 µg/mL.

For `CO/N=C(\C(=O)N[C@@H]1C(=O)N2C(C(=O)O)=C(COC(N)=O)CS[C@H]12)c1ccco1` [CEFUROXIME], the Activity with Haemophilus influenzae [5] was found to be 48.8%; in the assay with Haemophilus influenzae [6] it was 20%; in the assay with Haemophilus influenzae [7], 45.4%; in the assay on Haemophilus influenzae [8], 19%. Also, the MIC50 against Haemophilus influenzae [1] came to 4 µg/mL (≈ 9.43 µM); in the assay on Haemophilus influenzae [2], 1 µg/mL (≈ 2.36 µM); against Haemophilus influenzae [3], 2 µg/mL (≈ 4.71 µM); with Haemophilus influenzae [4], 4 µg/mL. Besides, the MIC90 in the assay on Haemophilus influenzae [1] was 16 µg/mL (≈ 37.7 µM); in the assay with Haemophilus influenzae [2] it was 8 µg/mL (≈ 18.9 µM); against Haemophilus influenzae [3], 8 µg/mL (≈ 18.9 µM); in the assay on Haemophilus influenzae [4], 16 µg/mL.

The values above are taken from ChEMBL document CHEMBL1275578, “Genotypic versus phenotypic characterization, with respect to beta-lactam susceptibility, of Haemophilus influenzae isolates exhibiting decreased susceptibility to beta-lactam resistance markers” (2009).
